“Also recorded” adds a separate entry of the source.
How the values were obtained:
monocytes = assay: Monocyte viability at different TNFα treatment durations; type: cell-based, human
Experimental: There is strong evidence in the literature for increased TNFα in PD^27,34-36 including in the brain, cerebrospinal fluid, and serum of Parkinson's patients^27 as well as in Parkinsonian mice^37,38. […] Therefore, the hypothesis that ex vivo stimulation of monocytes from healthy subjects with TNFα stimulates TH expression was tested, as measured by changes in the number of TH-expressing monocytes, and/or the amount of TH per monocyte. Flow cytometry was employed to address the former, and bio-ELISA to address the latter. Two million monocytes isolated from whole blood of healthy donors were treated for 4 hours with tissue plasminogen activator (TPA, 100 ng/ml, positive control for increased monocyte TH expression^7), TNFα (17 ng/mL)^61 and compared with monocytes treated with vehicle (FIG. 6A). Monocytes were assayed for TH expression by two complementary methods: flow cytometry^51 (FIG. 6B-F) and ELISA (FIG. 6G-H). It is noted that because a prolonged TNFα exposure can induce cell toxicity^82-86, multiple treatment durations were tested. […] Therefore, a 4-hour treatment strategy was selected in this study.

CD14+ monocytes [1] = assay: Intracellular flow cytometry for Ki67 (cell proliferation); type: cell-based, human; settings: TNFα treated monocytes
Experimental: To control for donor variability, identical quantities of counting beads were added as a reference. The number of TH+ monocytes was quantified by flow cytometry (FIG. 6B, left) in two experimental groups: TPA-treated and TNFα-treated. Monocytes in each condition were gated to isolate single cells expressing TH (FIG. 6B). […] A possible mechanism for this observation is either monocyte proliferation during the treatment period or an altered monocyte phenotype in response to TNFα, with no change in total number of monocytes. In other words, following TNFα treatment, TH+ monocytes may either be increasing in number (proliferation) or existing monocytes upregulate TH expression and become TH+ (phenotypic change). While a four-hour exposure to TNFα is an insufficient time period to induce proliferative events in immune cells^74, these possibilities could not be confidently ruled out without additional analyses. Therefore, monocyte proliferation was quantified by comparing the total number of monocytes per microliter of untreated vs. TNFα treated experimental group. […] A more rigorous approach was conducted to assess Ki67 expression as a measure of cell proliferation^87. […] While this finding explains our earlier observation of increased numbers of TH+ cells, the potential phenotypic shift following TNFα mediated immune stimulation was an unpredicted and novel finding.

CD14+ monocytes [2] = assay: Flow cytometry count of TH+ monocytes after in vitro treatment; type: cell-based, human; settings: TNFα 17 ng/ml, 4 hours; for number of TH+ monocytes, fold change relative to vehicle: healthy donor monocytes, 2 million per well, TPA 100 ng/ml, IL6 17 ng/ml, XPro1595 50 ng/ml, n=3 per group
Experimental: Monocytes were isolated from total PBMCs prepared as described above^51 using negative selection (Biolegend, 480048) per manufacturer's instructions. Total PBMCs were Fc-blocked to reduce nonspecific binding, followed by incubations with biotin-conjugated antibody cocktail containing antibodies against all subsets except CD14 (negative selection), followed by incubation with magnetic-Avidin beads, allowing all subsets other than CD14+ monocytes to be bound to the magnet. Monocyte purity/enrichment was routinely verified to confirm that the final cell population was greater than 95% pure CD14+ cells (FIG. S2). CD14+ monocytes were collected from the supernatant fraction, washed, counted and density adjusted such that 2 million CD14+ monocytes were seeded per well (FIG. 5A) and treated for 4 hours with vehicle, TPA (100 ng/ml, Biolegend, 755802)^7, TNFα (17 ng/mL, Biolegend, 570102)^61, XPro1595 (50 ng/ml), or IL6 (17 ng/mL) in an ultra-low-adherence 6-well plate (Corning, 3471) to prevent adherence. Suspended cells from each treatment group were aspirated and placed in a 15 ml conical tube, with any remaining adherent cells detached by incubation with 700 uL Accumax solution for 3 minutes (Innovative Cell Technologies, AM105) and added to suspended cells. After pelleting cells by centrifugation (3 minutes×100 g, room temperature), cells were assayed by either flow cytometry^51 or lysed for ELISA as stated above (“Preparation of cell lysates”).
As previously published^51, cells for flow cytometry were fixed and permeabilized (eBioscience, 88-8824-00), and stained for intracellular marker TH (Millipore-Sigma, AB152, 1:100) followed by a species-specific secondary (anti-Rabbit BV421, BD, 565014). After resuspending the sample in a final volume of 250 uL PBS, 5 uL of Invitrogen CountBright Absolute Counting Beads (5000 beads/mL, Invitrogen, C36950) were added just prior to data acquisition (Sony Spectral Analyzer, SP6800). […]

[3] = system: TH protein in human monocytes; assay: TH Bio-ELISA on lysates of treated monocytes; type: cell-based; settings: healthy donor monocytes, 4 hours; TNFα 17 ng/ml, IL6 17 ng/ml, XPro1595 50 ng/ml
Experimental: Adherent cells in culture were lifted using 0.02% EDTA in PBS, diluted with 5 volumes of PBS, and centrifuged at 100×g. Non-adherent cells (PC12) were centrifuged at 100×g for 5 minutes at room temperature, and cell pellets were washed 3 times with 5 volumes of sterile PBS. Primary macrophages and primary murine neuron cultures were washed thrice with ice-cold PBS, on ice. Cell pellets and adherent primary cells were then lysed in ice-cold lysis buffer (10 mM NaCl, 10% glycerol (v/v), 1 mM EDTA, 1 mM EGTA, and HEPES 20 mM, pH 7.6), with Triton X-100 added to a final concentration of 1%, containing 1× protease inhibitor cocktail (Millipore-Sigma, 539131) for one hour at 4° C. with rotation. Resulting lysate was centrifuged at 12,000×g for 15 minutes at 4° C. Supernatant was set aside for protein quantification by Lowry assay (Biorad, 5000112) and the remainder was stored at −80° C. until use for downstream assays.
Antibodies used for ELISA are described in Table 4. […]
Duplicate standard and sample wells were averaged, and background-subtracted based on blank wells. The concentration of TH for each experimental group was calculated using a quadratic curve equation calculated in Graphpad Prism 8, then normalized to total protein concentration per sample as calculated using the Lowry assay. […]

Row | Substance | cell viability (monocytes; 4-hour TNFα (17 ng/ml) treatment) | cell viability (monocytes; longer TNFα exposure (more than 4 hours)) | Ki67 expression relative to vehicle-treated controls (CD14+ monocytes [1]) | total number of monocytes per microliter, untreated vs. treated (CD14+ monocytes [2]) | number of TH+ monocytes, fold change relative to vehicle (CD14+ monocytes [2]) | TH concentration (picogram per milligram total protein) relative to vehicle [3]
1 | TNFα | minimal effect on cell viability | substantially decreased cell viability | no change in Ki67 expression | unchanged | significant increases in TH-expressing monocytes relative to vehicle | significantly increased the amount of TH protein; also recorded: significantly increases
2 | IL6: interleukin-6 (IL6), a cytokine with pleiotropic effects |  |  |  |  | no significant change in the number of TH+ monocytes | Neither IL6 nor IL6+XPro1595 significantly increased TH quantity

From patent publication US20240345090A1, “EARLY DETECTION OF INNATE IMMUNE DYSFUNCTION AND TREATMENT OF CONDITIONS ASSOCIATED THEREWITH” (UNIVERSITY OF FLORIDA RESEARCH FOUNDATION, INCORPORATED, priority 2021, published 2024)
